Laboratory results published in publication PMC11699688, “Unravelling the outcome of L-glutaminase produced by Streptomyces sp. strain 5 M as an anti-neoplasm activity” (Microbial Cell Factories, 2025).

Test system: T1, L-glutaminase
T1 construct: native extracellular enzyme purified from culture (ammonium sulfate, DEAE-cellulose, Sephacryl S-300); 52 kDa by SDS-PAGE (54 kDa in discussion); monomer
Assay: steady-state kinetics, ammonia release by Nesslerization
Type: biochemical, Streptomyces sp. 5 M
Conditions: substrate 2-5 mM; pH and temperature of the kinetic run not printed (optimum pH 7.5, 40 °C)
Text: steady-state kinetics, ammonia release by Nesslerization on L-glutaminase | the purified L-glutaminase from Streptomyces sp.

A Km of 2620 µM was found for NC(=O)CC[C@H](N)C(=O)O [L-glutamine] in this work.
